# Tests used:
# human NOX2 = target: T1, human NOX2 (Homo sapiens, UniProt P04839); test: Lucigenin chemiluminescence assay, drosophila membranes expressing hNOX2; format: biochemical; conditions: average of three repeats
# T1 construct: made in house; host or cells: transgenic Drosophila (Da-GAL4 driven UAS-hNOX2, dDuox RNAi background); membranes from homogenized flies
# T1 sequence (P04839 2-570 limits assumed): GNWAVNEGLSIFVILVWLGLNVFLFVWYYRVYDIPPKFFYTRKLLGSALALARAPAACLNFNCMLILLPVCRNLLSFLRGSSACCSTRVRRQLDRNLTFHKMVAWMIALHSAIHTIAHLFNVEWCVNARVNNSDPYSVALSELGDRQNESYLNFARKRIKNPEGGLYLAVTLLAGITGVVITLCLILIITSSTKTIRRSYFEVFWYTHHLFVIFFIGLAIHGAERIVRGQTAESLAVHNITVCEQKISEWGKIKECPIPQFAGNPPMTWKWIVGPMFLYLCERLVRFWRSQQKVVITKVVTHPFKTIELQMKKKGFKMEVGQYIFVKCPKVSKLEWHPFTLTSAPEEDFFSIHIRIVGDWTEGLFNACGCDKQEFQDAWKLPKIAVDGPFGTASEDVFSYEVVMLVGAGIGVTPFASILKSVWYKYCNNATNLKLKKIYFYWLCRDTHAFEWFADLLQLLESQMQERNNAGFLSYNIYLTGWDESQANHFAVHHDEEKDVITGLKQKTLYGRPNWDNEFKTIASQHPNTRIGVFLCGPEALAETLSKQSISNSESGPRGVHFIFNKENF
# Method: Human NOX isozymes were provided from transgenic flies expressing human NOX isozymes from the daughterless (Da)-GAL4 promoter. The genotype of each fly line is shown below. • human NOX2:UAS-hNOX2/UAS-dDuox-RNAi; Da-GAL4/+ • human NOX4:UAS-hNOX4/UAS-dDuox-RNAi; Da-GAL4/+
# Transgenic flies were homogenized in PBS containing protease inhibitors (aprotinin, leupeptin) to obtain drosophila membranes of each NOX isozyme. The membranes were incubated with the compounds (100 μM, 10 μM, 1 μM, 0.1 μM, 0.01 μM, 0.001 μM, and 0 μM) for 10 minutes in a shaker. Then, to the membranes, a mixture of 500 μM NADPH (R-nicotinamide adenine dinucleotide 2′-phosphate reduced tetrasodium salt hydrate; Sigma-Aldrich) and 400 μM lucigenin (N,N′-dimethyl-9,9-biacridinium dinitrate; Sigma-Aldrich) in 1× HEPES (4-(2-hydroxyethyl)-1-piperazineethanesulfonic acid) buffer was added. Lucigenin chemiluminescence was detected at 1-minute intervals for 10 minutes using a multimode microplate reader (SpectraMax iD3, Molecular Devices). IC50 values were calculated with Graph-Pad Prism 5 (GraphPad Software).
# The lucigenin chemiluminescence assay was performed with drosophila membranes expressing hNOX1, hNOX2, and hNOX4. The assay was repeated three times and the IC50 values were averaged.
# BV2 cells = test: NOX inhibition assay in BV2 cells (LPS-induced reactive oxygen species, lucigenin); format: cell-based, mouse; conditions: BV2 cells pre-treated 30 minutes, LPS 10 ng/ml, 0-10000 nM
# Method: BV2 cells, a mouse microglial cell line, were washed with Hank's balanced salt solution (HBSS) and stabilized by incubation at 37° C. in HBSS for 30 minutes. Then, the compounds (compound of Example 1 or compound of Example 2) were treated at various concentrations (0 nM, 1 nM, 10 nM, 100 nM, 1000 nM, and 10000 nM). After 30 minutes, 10 ng/ml of lipopolysaccharide (LPS) and 200 μM of lucigenin were added to the cells. Lucigenin chemiluminescence induced by active oxygen (reactive oxygen species) was detected at 10-second intervals for 15 minutes using a luminometer (GLOMA, Promega).
# [1] = Cytotoxicity experiment (MTT assay) HepG2; format: cell-based; conditions: human, HepG2 cells
# Method: HepG2 (human hepatocellular carcinoma) and HT-22 (mouse hippocampal neuronal cell line) were seeded at densities of 1×10^5 or 1.5×10^4 per well in a 48-well plate and incubated for at least 12 hours, then treated with compounds of Example 1 and Example 2 at various concentrations (0 nM, 1 nM, 10 nM, 100 nM, 1000 nM, 10000 nM, 100000 nM, and 1000000 nM) and incubated for 24 hours. MTT solution (Thiazolyl Blue Tetrazolium Bromide 2 mg/ml) was subsequently added at 30 μl per well. After incubation for 4 hours, the culture medium containing the MTT solution was removed and 300 μl of DMSO was added to dissolve the MTT-formazan. 100 μl of the solution in each well was transferred to a 96-well plate and the absorbance was measured at 570 nm. IC50 values were calculated with Graph-Pad Prism 5 (GraphPad Software). The cell viability of the groups treated with the compounds of Example 1 and Example 2 at each concentration was determined relative to control group in which HepG2 cells were treated with DMSO alone, in at least five replicates.
# PAMPA-BBB assay = format: in vitro ADME; conditions: incubation 4 hr, pH 7.4, 25° C., U.V, read-out: Permeability Pe
# Method: The parallel artificial membrane permeability assay (PAMPA) was performed to determine the brain barrier blood (BBB) permeability. […] For the Blank measurement, the donor buffer was dispensed into a high sensitivity UV plate at 150 μl per well and the UV values were measured (Blank sample). For the initial value measurement, the mixture in the deep well plate was dispensed 150 μl per well into the UV plate and the UV values were measured (initial sample). Next, 200 μl of the test compound mixture was dispensed onto the donor plate of the PAMPA sandwich, and the acceptor plate of the PAMPA sandwich was inverted and the membrane was coated with 5 μl of BBB-lipid solution. Then, 200 μl of acceptor sink buffer was added to each well of the acceptor plate, and the acceptor plate and donor plate were combined and incubated at 25° C. for 4 hours. […] Finally, the permeability (Pe(10^−6 cm/sec)) was analyzed using the PAMPA explore program. The experiment was performed in three replicates. The permeability of the material was analyzed by UV measurement and LC-MS/MS, the specific conditions of which are described below.
SMILES,IC50 (human NOX2) [nM],production of reactive oxygen species (BV2 cells),IC50 at 24 h [1] [µM],"Papp at 4 h, 10 μM (PAMPA-BBB assay; 10 μM) [×10⁻⁶ cm/s]","Papp at 4 h, 50 μM (PAMPA-BBB assay; 50 μM) [×10⁻⁶ cm/s]"
"O=C(Nc1nnc(-c2ccccc2)o1)c1ccc(F)c(C(F)(F)F)c1 [Example 2, 4-fluoro-N-(5-phenyl-1,3,4-oxadiazol-2-yl)-3-(trifluoromethyl)benzamide]",260,significantly reduced,1100,> 0.4,
"O=C(Nc1nnc(-c2cccc(Cl)c2)o1)c1cc(F)cc(C(F)(F)F)c1 [Example 1, N-(5-(3-chlorophenyl)-1,3,4-oxadiazol-2-yl)-3-fluoro-5-(trifluoromethyl)benzamide]",90,significantly reduced,4.2,,> 0.4

# — patent publication US20250051293A1, “NOVEL OXADIAZOLE DERIVATIVE AND USE THEREOF” (CELROS BIOTECH, priority 2021, published 2025)
